What was measured:
Experiment in all cases: relative viability (nuclei count vs DMSO), 5 days (fraction); higher = more cells survive
RAF265 + Pictilisib = compound: Cn1c(Nc2ccc(C(F)(F)F)cc2)nc2cc(Oc3ccnc(-c4ncc(C(F)(F)F)[nH]4)c3)ccc21 [RAF265] + CS(=O)(=O)N1CCN(Cc2cc3nc(-c4cccc5[nH]ncc45)nc(N4CCOCC4)c3s2)CC1 [Pictilisib] (partner 1 µM)
Method in brief: (§1)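 The day after seeding in 1536-well plates, lung cancer cell lines were treated by pin tool with a single drug, or with a fixed anchor-drug dose together with five library-drug doses (not always all listed) in √10 steps. After 5 days, a combined fix-and-stain solution (final 0.05% Triton X-100, 1% formaldehyde, 1 ug/ml Hoechst) was added. Nuclei counted on 4× images gave relative viability as treated counts over vehicle counts, reported as the median of duplicate plates.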

RAF265 + Pemetrexed = compound: Cn1c(Nc2ccc(C(F)(F)F)cc2)nc2cc(Oc3ccnc(-c4ncc(C(F)(F)F)[nH]4)c3)ccc21 [RAF265] + Nc1nc2[nH]cc(CCc3ccc(C(=O)N[C@@H](CCC(=O)O)C(=O)O)cc3)c2c(=O)[nH]1 [Pemetrexed] (partner 0.2 µM)
Method in brief: as §1

RAF265 + Luminespib = compound: Cn1c(Nc2ccc(C(F)(F)F)cc2)nc2cc(Oc3ccnc(-c4ncc(C(F)(F)F)[nH]4)c3)ccc21 [RAF265] + CCNC(=O)c1noc(-c2cc(C(C)C)c(O)cc2O)c1-c1ccc(CN2CCOCC2)cc1 [Luminespib] (partner 0.01 µM)
Method in brief: as §1

IPA-3 + Crizotinib = compound: C1=CC=C2C(=C1)C=CC(=C2SSC3=C(C=CC4=CC=CC=C43)O)O [IPA-3] + C[C@@H](Oc1cc(-c2cnn(C3CCNCC3)c2)cnc1N)c1c(Cl)ccc(F)c1Cl [Crizotinib] (partner 1 µM)
Method in brief: as §1

UMC-11
relative viability (RAF265 + Pictilisib; first compound 0.01 µM): 0.782 | relative viability (RAF265 + Pictilisib; first compound 0.03162 µM): 0.747 | relative viability (RAF265 + Pictilisib; first compound 0.1 µM): 0.88 | relative viability (RAF265 + Pictilisib; first compound 0.3162 µM): 0.822 | relative viability (RAF265 + Pictilisib; first compound 1 µM): 0.644 | relative viability (RAF265 + Pemetrexed; first compound 0.01 µM): 0.689 | relative viability (RAF265 + Pemetrexed; first compound 0.03162 µM): 0.854 | relative viability (RAF265 + Pemetrexed; first compound 0.1 µM): 0.764 | relative viability (RAF265 + Pemetrexed; first compound 0.3162 µM): 0.761 | relative viability (RAF265 + Pemetrexed; first compound 1 µM): 0.639 | relative viability (RAF265 + Luminespib; first compound 0.01 µM): 0.984 | relative viability (RAF265 + Luminespib; first compound 0.03162 µM): 1.01 | relative viability (RAF265 + Luminespib; first compound 0.1 µM): 1.06 | relative viability (RAF265 + Luminespib; first compound 0.3162 µM): 1.01 | relative viability (RAF265 + Luminespib; first compound 1 µM): 0.936 | relative viability (IPA-3 + Crizotinib; first compound 0.2 µM): 0.605 | relative viability (IPA-3 + Crizotinib; first compound 0.6325 µM): 0.524 | relative viability (IPA-3 + Crizotinib; first compound 2 µM): 0.798 | relative viability (IPA-3 + Crizotinib; first compound 6.325 µM): 0.579 | relative viability (IPA-3 + Crizotinib; first compound 20 µM): 0.673
